For data set [1], the system named is P. aeruginosa. Particulars: cited from earlier work.
For data set [2] the following is noted: parent drug; cited from earlier work.
A short description of data set [3]: Lung pharmacokinetic profiling in guinea pigs after intratracheal instillation. The class given is in vivo, guinea pigs (Cavia porcellus). Particulars: male, guinea pig, 1.6 mg.

SMILES strings stand for the structures.

The text below walks through data of PMC4744570 (Pharmaceutical research, 2015).

Broadly, the Cmax is the highest concentration seen after dosing. Turning to `C[C@@H](O)[C@H]1C(=O)N2C(C(=O)O)=C(S[C@@H]3CN[C@H](C(=O)N(C)C)C3)[C@H](C)[C@H]12` [meropenem], the MIC90 in data set [1] was 8,000 ng/mL. Also, the “solubility (S) in water” value in data set [2] is on record as above 50 mg/mL. The molecule also came in with a peak concentration (Cmax) in data set [3] (inhaled or intranasal) above 70000 ng/mL. Also, in data set [3] (other: intratracheal), the concentration at 3 h is below 1000 ng/mL, the concentration at 9 h worked out at 12 ng/mL and the concentration at 12 h is 10 ng/mL.
